In ChEMBL document CHEMBL3526033, “Identification of human liver cytochrome P450 enzymes involved in the metabolism of SCH 530348 (Vorapaxar), a potent oral thrombin protease-activated receptor 1 antagonist” (Drug Metab Dispos, 2011):
One block for each compound: values may come before it.

Key:
Cytochrome P450 1B1 = Cytochrome P450 1B1 (Homo sapiens, UniProt Q16678); assay: Activity of human recombinant CYP1B1 assessed as enzyme-mediated 2-hydroxyethyl (1R,3aR,4aR,6R,8aR,9S,9aS)-9-((E)-2-(5-(3-fluorophenyl)pyridin-2-yl)vinyl)-1-methyl-3-oxododecahydronaphtho[2,3-c]furan-6-ylcarbamate formation at 25 uM after 120 mins by LC-MS/MS analysis in presence of NADPH; format: ADME; conditions: 2 h
Cytochrome P450 2C19 = Cytochrome P450 2C19 (Homo sapiens, UniProt P33261); assay: Activity of human recombinant CYP2C19 assessed as enzyme-mediated (3R,3aS,4S,4aR,7R,8aR,9aR)-7-amino-4-((E)-2-(5-(3-fluorophenyl)pyridin-2-yl)vinyl)-3-methyldecahydronaphtho[2,3-c]furan-1(3H)-one formation at 25 uM after 120 mins by LC-MS/MS analysis in presence of NADPH; format: ADME; conditions: 2 h
Cytochrome P450 4F2 = Cytochrome P450 4F2 (Homo sapiens, UniProt P78329); assay: Activity of human recombinant CYP4F2 assessed as enzyme-mediated 2-hydroxyethyl (1R,3aR,4aR,6R,8aR,9S,9aS)-9-((E)-2-(5-(3-fluorophenyl)pyridin-2-yl)vinyl)-1-methyl-3-oxododecahydronaphtho[2,3-c]furan-6-ylcarbamate formation at 25 uM after 120 mins by LC-MS/MS analysis in presence of NADPH; format: ADME; conditions: 2 h
Cytochrome P450 1A2 = target: T1, Cytochrome P450 1A2 (Homo sapiens, UniProt P05177); assay: Activity of human recombinant CYP1A2 assessed as enzyme-mediated 2-hydroxyethyl (1R,3aR,4aR,6R,8aR,9S,9aS)-9-((E)-2-(5-(3-fluorophenyl)pyridin-2-yl)vinyl)-1-methyl-3-oxododecahydronaphtho[2,3-c]furan-6-ylcarbamate formation at 25 uM after 120 mins by LC-MS/MS analysis in presence of NADPH; format: ADME; conditions: 2 h
T1 sequence (P05177 whole entry): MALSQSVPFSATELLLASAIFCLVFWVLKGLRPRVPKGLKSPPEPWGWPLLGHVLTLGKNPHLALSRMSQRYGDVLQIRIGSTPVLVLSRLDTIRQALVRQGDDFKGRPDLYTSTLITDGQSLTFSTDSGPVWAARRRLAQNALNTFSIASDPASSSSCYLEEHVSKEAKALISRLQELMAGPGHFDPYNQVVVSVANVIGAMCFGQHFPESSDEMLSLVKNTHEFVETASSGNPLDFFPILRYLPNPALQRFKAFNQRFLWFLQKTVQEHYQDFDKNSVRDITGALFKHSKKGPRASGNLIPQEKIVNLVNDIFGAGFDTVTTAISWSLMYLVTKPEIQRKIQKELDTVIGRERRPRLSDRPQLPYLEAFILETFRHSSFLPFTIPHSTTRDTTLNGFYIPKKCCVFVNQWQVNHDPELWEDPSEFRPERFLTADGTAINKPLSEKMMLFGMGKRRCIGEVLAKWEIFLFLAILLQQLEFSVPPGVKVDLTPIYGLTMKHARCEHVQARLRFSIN

Cytochrome P450 2B6 = target: T2, Cytochrome P450 2B6 (Homo sapiens, UniProt P20813); assay: Activity of human recombinant CYP2B6 assessed as enzyme-mediated drug metabolism at 10 uM after 120 mins by LC-MS/MS analysis; format: ADME; conditions: 2 h
T2 sequence (P20813 whole entry): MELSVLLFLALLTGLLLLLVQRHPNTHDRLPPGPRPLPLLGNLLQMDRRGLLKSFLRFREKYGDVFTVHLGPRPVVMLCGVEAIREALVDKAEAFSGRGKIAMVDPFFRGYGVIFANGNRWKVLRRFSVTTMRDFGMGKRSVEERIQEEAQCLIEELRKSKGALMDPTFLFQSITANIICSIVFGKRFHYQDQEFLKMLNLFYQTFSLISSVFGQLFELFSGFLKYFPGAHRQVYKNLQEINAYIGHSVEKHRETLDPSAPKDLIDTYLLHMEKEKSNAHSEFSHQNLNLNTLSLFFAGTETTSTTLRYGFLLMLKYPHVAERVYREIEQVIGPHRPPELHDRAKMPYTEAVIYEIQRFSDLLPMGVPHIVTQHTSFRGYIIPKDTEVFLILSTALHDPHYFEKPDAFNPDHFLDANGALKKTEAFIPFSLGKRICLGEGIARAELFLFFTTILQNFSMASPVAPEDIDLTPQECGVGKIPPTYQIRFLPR

[1] = Drug level in human lung microsomes treated with 25 uM vorapaxar after 120 mins by LC-MS/MS analysis in presence of NADPH; format: ADME, microsome; conditions: 2 h
Cytochrome P450 2C8 = Cytochrome P450 2C8 (Homo sapiens, UniProt P10632); assay: Activity of human recombinant CYP2C8 assessed as enzyme-mediated drug metabolism treated with 25 uM vorapaxar after 120 mins by LC-MS/MS analysis in presence of NADPH; format: ADME; conditions: 2 h
Cytochrome P450 2D6 = Cytochrome P450 2D6 (Homo sapiens, UniProt P10635); assay: Activity of human recombinant CYP2D6 assessed as enzyme-mediated drug metabolism treated with 25 uM vorapaxar after 120 mins by LC-MS/MS analysis in presence of NADPH; format: ADME; conditions: 2 h
Cytochrome P450 2C18 = Cytochrome P450 2C18 (Homo sapiens, UniProt P33260); assay: Activity of human recombinant CYP2C18 assessed as enzyme-mediated drug metabolism treated with 25 uM vorapaxar after 120 mins by LC-MS/MS analysis in presence of NADPH; format: ADME; conditions: 2 h
CYP1A1 = CYP1A1 (Homo sapiens, UniProt P04798); assay: Activity of human recombinant CYP1A1 assessed as enzyme-mediated drug metabolism at 10 uM after 120 mins by LC-MS/MS analysis in presence of NADPH; format: ADME; conditions: read-out: Compound recovery
Liver microsome [2] = assay: Drug metabolism in human liver microsomes overexpressing CYP3A4 assessed as (3R,3aS,4S,4aR,7R,8aR,9aR)-7-amino-4-((E)-2-(5-(3-fluorophenyl)pyridin-2-yl)vinyl)-3-methyldecahydronaphtho[2,3-c]furan-1(3H)-one formation at 25 uM after 120 mins by LC-MS/MS analysis in presence of ketoconazole; format: ADME; conditions: 2 h
Liver microsome [3] = assay: Drug metabolism in human liver microsomes assessed as (3R,3aS,4S,4aR,7R,8aR,9aR)-7-amino-4-((E)-2-(5-(3-fluorophenyl)pyridin-2-yl)vinyl)-3-methyldecahydronaphtho[2,3-c]furan-1(3H)-one formation at 10 to 25 uM after 120 mins by LC-MS/MS analysis in presence of omeprazole; format: ADME; conditions: 2 h
CYP2D6 = CYP2D6 (Homo sapiens, UniProt P10635); assay: Activity of human recombinant CYP2D6 assessed as enzyme-mediated drug metabolism at 10 uM after 120 mins by LC-MS/MS analysis in presence of NADPH; format: ADME; conditions: read-out: Compound recovery
CYP2D6, sequence (P10635 whole entry): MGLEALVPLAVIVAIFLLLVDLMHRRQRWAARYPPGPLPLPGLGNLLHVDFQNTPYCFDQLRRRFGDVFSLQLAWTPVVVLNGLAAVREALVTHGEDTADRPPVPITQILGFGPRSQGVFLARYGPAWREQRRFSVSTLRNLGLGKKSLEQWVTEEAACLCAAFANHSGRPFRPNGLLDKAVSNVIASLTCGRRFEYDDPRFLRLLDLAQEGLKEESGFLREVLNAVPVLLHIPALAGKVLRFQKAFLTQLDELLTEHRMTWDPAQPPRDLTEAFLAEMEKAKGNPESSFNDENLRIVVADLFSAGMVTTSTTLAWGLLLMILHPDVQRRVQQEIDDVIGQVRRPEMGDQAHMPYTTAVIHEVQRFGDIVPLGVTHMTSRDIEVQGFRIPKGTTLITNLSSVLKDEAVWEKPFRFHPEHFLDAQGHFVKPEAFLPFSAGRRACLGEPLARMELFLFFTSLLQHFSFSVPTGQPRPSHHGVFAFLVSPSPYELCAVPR

Cytochrome P450 2C19, sequence (P33261 whole entry): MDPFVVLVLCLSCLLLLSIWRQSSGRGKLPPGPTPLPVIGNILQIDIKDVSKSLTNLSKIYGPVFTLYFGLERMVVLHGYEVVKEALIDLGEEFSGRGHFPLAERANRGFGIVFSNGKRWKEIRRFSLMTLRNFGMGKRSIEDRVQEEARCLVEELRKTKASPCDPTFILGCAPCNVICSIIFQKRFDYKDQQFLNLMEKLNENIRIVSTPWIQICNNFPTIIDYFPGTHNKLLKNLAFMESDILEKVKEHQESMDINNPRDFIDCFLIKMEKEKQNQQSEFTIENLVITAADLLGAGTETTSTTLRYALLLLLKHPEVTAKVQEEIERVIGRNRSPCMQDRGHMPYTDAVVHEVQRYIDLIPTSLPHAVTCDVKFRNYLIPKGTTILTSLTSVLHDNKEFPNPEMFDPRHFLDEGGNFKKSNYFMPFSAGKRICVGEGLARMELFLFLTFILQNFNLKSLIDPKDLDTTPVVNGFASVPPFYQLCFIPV
Cytochrome P450 1B1, sequence (Q16678 whole entry): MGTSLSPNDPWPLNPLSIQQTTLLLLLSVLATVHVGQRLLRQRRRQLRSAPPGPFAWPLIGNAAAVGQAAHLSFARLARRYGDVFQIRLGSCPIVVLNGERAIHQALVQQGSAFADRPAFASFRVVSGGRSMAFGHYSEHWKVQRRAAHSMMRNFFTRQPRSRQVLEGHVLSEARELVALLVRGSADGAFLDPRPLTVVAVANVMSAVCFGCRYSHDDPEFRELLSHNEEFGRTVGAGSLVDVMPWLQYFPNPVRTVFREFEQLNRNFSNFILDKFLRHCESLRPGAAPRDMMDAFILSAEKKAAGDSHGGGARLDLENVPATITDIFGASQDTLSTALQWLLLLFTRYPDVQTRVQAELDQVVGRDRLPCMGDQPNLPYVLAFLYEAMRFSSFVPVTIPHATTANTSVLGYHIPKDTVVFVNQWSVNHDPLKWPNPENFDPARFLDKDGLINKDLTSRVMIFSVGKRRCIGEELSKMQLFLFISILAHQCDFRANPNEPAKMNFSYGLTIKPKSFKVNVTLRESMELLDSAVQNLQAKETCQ
Cytochrome P450 2C8, sequence (P10632 whole entry): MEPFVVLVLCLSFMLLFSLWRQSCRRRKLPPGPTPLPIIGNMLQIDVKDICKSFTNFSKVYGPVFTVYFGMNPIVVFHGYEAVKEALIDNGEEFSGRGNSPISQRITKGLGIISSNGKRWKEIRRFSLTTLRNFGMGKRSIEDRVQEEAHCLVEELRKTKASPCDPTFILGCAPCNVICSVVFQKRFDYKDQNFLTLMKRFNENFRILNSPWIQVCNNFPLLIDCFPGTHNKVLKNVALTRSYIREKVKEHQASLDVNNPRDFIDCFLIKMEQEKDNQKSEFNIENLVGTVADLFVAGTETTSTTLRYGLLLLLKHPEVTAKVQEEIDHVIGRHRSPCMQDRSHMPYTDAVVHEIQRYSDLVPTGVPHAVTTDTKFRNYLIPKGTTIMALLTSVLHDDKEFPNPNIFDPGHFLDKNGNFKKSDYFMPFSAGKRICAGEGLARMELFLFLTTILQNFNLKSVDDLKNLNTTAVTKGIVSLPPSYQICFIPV
Cytochrome P450 2C18, sequence (P33260 whole entry): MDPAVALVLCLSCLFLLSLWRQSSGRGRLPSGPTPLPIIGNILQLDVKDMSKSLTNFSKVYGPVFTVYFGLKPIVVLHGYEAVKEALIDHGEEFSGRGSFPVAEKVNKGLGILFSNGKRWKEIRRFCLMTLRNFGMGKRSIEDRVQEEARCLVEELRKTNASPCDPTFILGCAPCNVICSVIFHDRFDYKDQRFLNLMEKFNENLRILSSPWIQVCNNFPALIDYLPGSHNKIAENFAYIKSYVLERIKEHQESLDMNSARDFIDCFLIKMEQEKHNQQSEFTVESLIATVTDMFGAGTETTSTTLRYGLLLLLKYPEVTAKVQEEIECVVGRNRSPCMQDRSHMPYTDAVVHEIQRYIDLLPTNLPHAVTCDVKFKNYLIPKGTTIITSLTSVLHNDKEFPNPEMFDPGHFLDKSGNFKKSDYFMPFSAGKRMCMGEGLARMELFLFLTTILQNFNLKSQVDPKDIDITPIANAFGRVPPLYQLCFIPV
Cytochrome P450 4F2, sequence (P78329 whole entry): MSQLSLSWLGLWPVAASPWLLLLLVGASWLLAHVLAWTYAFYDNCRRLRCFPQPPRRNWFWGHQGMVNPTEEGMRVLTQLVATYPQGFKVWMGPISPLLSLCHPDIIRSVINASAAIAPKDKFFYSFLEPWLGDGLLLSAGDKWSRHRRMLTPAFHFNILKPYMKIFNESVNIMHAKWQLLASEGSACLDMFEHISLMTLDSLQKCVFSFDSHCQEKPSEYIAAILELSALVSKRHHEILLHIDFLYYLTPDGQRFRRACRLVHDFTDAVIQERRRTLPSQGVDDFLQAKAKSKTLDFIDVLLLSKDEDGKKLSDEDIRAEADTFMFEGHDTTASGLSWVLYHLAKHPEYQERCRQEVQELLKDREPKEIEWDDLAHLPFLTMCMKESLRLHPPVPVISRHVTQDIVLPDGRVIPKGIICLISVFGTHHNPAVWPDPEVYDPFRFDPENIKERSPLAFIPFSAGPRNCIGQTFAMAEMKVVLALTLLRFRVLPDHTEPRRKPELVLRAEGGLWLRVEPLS
Cytochrome P450 2D6, sequence (P10635 whole entry): as the sequence (P10635 whole entry) above
CYP1A1, sequence (P04798 whole entry): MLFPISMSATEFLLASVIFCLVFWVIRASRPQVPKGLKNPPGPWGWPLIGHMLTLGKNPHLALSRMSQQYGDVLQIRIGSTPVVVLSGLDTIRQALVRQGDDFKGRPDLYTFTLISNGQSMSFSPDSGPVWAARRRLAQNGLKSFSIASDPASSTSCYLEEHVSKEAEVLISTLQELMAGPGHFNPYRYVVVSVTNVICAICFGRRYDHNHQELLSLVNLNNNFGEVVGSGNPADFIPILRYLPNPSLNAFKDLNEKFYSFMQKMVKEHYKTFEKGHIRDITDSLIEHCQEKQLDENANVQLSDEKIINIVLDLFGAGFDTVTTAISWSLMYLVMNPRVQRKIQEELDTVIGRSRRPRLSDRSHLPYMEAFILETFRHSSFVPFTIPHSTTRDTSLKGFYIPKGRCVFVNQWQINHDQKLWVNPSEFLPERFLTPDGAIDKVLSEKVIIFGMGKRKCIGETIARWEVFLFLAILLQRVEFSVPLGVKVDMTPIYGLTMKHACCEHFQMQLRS

Drug metabolism (Cytochrome P450 1B1): metabolite_detected
Drug metabolism (Cytochrome P450 2C19): metabolite_detected
Drug metabolism (Cytochrome P450 4F2): metabolite_detected
Drug metabolism (Cytochrome P450 1A2): metabolite_detected
Drug metabolism (Cytochrome P450 2B6): metabolite_not_detected
SMILES: CCOC(=O)N[C@@H]1CC[C@@H]2[C@@H](C1)C[C@H]1C(=O)O[C@H](C)[C@H]1[C@H]2/C=[14CH]/c1ccc(-c2cccc(F)c2)cn1

Drug metabolism [1]: metabolite_detected
Drug metabolism (Cytochrome P450 2C8): metabolite_detected
Drug metabolism (Cytochrome P450 2D6): metabolite_detected
Drug metabolism (Cytochrome P450 2C18): metabolite_detected
SMILES: C[C@H]1OC(=O)[C@@H]2C[C@@H]3C[C@H](NC(=O)OCCO)CC[C@H]3[C@H](/C=C/c3ccc(-c4cccc(F)c4)cn3)[C@H]12

remaining at 2 h, 10 µM (CYP1A1): 96.3%
Drug metabolism (Liver microsome [2]): metabolite_not_detected
Drug metabolism (Liver microsome [3]): metabolite_detected
remaining at 2 h, 10 µM (CYP2D6): 98.1%
SMILES: CCOC(=O)N[C@@H]1CC[C@@H]2[C@@H](C1)C[C@H]1C(=O)O[C@H](C)[C@H]1[C@H]2/C=C/c1ccc(-c2cccc(F)c2)cn1 [VORAPAXAR]
